Residues, ends and D or L forms follow the SMILES beside them.
Tested on: differentiated primary human airway epithelial cells
Assay: Co-culture model: epithelial cell toxicity by transepithelial resistance
Assay type: cell-based
Settings: at a decrease in bacterial counts by two orders of magnitude, Figure 9
From the text: The antimicrobial peptides of the invention display selective toxicity to target microorganisms and minimal toxicity to mammalian cells. Determining the toxicity of the peptides claimed in this invention on mammalian cells is preferably performed using tissue culture assays. For mammalian cells, such assay methods include, inter alia, trypan blue exclusion and MTT assays (see Moore et al., 1994, Peptide Research 7:265-269). […] In addition, the disruption of the transepithelial resistance (Rte) of a cell monolayer that have formed tight junctions can be monitored. […]
Preparation of eukaryotic cells. […] In order to release viable bacteria, trypsin/EDTA was added and these preparations were plated on standard bacteriologic media to quantify bacterial survival. Similarly prepared cells were monitored for peptide toxicity by measuring transepithelial resistance. […]
Based on above in vitro findings, WLSA-5 (SEQ ID NO:3) was tested in a scenario that more accurately assessed its selective toxicity. […] The ability of peptide to kill bacteria is monitored as a function of viable bacteria associated with the epithelial cells after peptide exposure. […]

CC[C@H](C)[C@H](NC(=O)[C@H](C)NC(=O)[C@H](CCCNC(=N)N)NC(=O)[C@H](CS)NC(=O)[C@H](Cc1c[nH]c2ccccc12)NC(=O)[C@H](CCCNC(=N)N)NC(=O)[C@H](CCC(N)=O)NC(=O)[C@@H](NC(=O)[C@@H](NC(=O)[C@H](CCCNC(=N)N)NC(=O)[C@@H](NC(=O)[C@H](Cc1c[nH]c2ccccc12)NC(=O)[C@@H](N)CCCNC(=N)N)[C@@H](C)CC)C(C)C)C(C)C)C(=O)N[C@@H](CCCNC(=N)N)C(=O)N[C@@H](Cc1c[nH]cn1)C(=O)N[C@H](C(=O)N[C@@H](Cc1c[nH]c2ccccc12)C(=O)N[C@@H](CCCNC(=N)N)C(=O)N[C@@H](CCCNC(=N)N)C(=O)N[C@H](C(=O)N[C@@H](CCCNC(=N)N)C(=O)N[C@@H](CCC(N)=O)C(=O)NCC(=O)N[C@@H](CC(C)C)C(=O)N[C@@H](CCCNC(=N)N)C(=O)N[C@@H](CCCNC(=N)N)C(=O)N[C@@H](Cc1c[nH]c2ccccc12)C(=O)N[C@@H](CC(C)C)C(=O)N[C@@H](CCCNC(=N)N)C(=O)N[C@H](C(=O)N[C@H](C(=O)O)C(C)C)C(C)C)[C@@H](C)CC)[C@@H](C)CC [WLSA-5] (H-RWIRVVQRWCRAIRHIWRRIRQGLRRWLRVV-OH)
change in transepithelial resistance: less than 50%

— patent publication EP1368050B1, “VIRUS DERIVED ANTIMICROBIAL PEPTIDES” (priority 2001, dated 2008)
